The target of one assay is T1, Kir6.2/SUR1 (Homo sapiens, UniProt Q14654).
T1 construct: expressed in transfected cells
Put plainly: Tl+ flux selectivity assay, Kir6.2/SUR1. To be noted: Kir6.2/SUR1, diazoxide 250 µM; n = 2 independent experiments in triplicate; read-out: Inhibition of Tl+ flux (IC50). The assay is classed as cell-based. Here is the method: [Worded in the source for another target; used here, by the source, with some conditions changed.] Tl^+ flux assays were performed essentially as described previously, [18], [19]. Briefly, stably transfected T-Rex-HEK-293 cells expressing AeKir1 channels were cultured overnight in 384-well plates (20,000 cells/20 µL/well black-walled, clear-bottomed BD PureCoat amine-coated plates (BD, Bedford, MA) with a plating media containing DMEM, 10% dialyzed FBS and 1 µg/mL tetracycline. The next day, the cell culture medium was replaced with a dye-loading solution containing assay buffer (Hanks Balanced Salt Solution with 20 mM HEPES, pH 7.3), 0.01% (w/v) Pluronic F-127 (Life Technologies, Carlsbad, CA), and 1.2 µM of the thallium-sensitive dye Thallos-AM (TEFlabs, Austin, TX). Following 1 hr incubation at room temperature, the dye-loading solution was washed from the plates and replaced with 20 µL/well of assay buffer. […] Tl^+ flux data were analyzed as previously described, [21], [22] using a combination of Excel (Microsoft Corp, Redmond, WA) with XLfit add-in (IDBS, Guildford, Surrey, UK) and OriginPro (OriginLab, Northampton, MA) software. […] The slope of the fluorescence increase beginning 5 s after Tl^+ addition and ending 15 s after Tl^+ addition was calculated.

The next assay has as its target AeKir2B (Aedes aegypti, UniProt L0EQ40). Description: Two-electrode electrophysiology of Xenopus oocytes expressing AeKir2B. The assay is classed as cell-based. To be noted: inward current at −140 mV, 95% CI: 31.7–64.2 µM, n = 4–5 oocytes per concentration, read-out: IC50 of AeKir2B current inhibition. The protocol:
AeKir1 and AeKir2B channels were expressed heterologously in Xenopus laevis oocytes as described previously. In brief, defolliculated Xenopus oocytes (purchased from Ecocyte Bioscience, Austin, TX) were injected with 10 ng (0.35 ng/nL) of either AeKir1 or AeKir2B cRNA and cultured for 3–7 days in OR3 media at 18°C. Oocytes injected with 28 nl of nuclease-free H2O served as controls.
All electrophysiological experiments on Xenopus oocytes were performed at room temperature. When present, VU625 was dissolved in solution III or solution V to a final concentration of 0.1, 1, 5, 15, or 50 µM (0.05% DMSO). All solutions were delivered by gravity to a RC-3Z oocyte chamber (Warner Instruments, Hamden, CT) via polyethylene tubing at a flow rate of ∼2 ml/min. Solution changes were made with a Rheodyne Teflon 8-way Rotary valve (Model 5012, Rheodyne, Rohnert Park, CA).
Electrophysiological recordings from oocytes were conducted as described previously In brief, each oocyte was transferred to the holding chamber under superfusion with solution I and impaled with two conventional-glass microelectrodes backfilled with 3 M KCl (resistances of 0.5–1.5 MΩ) to measure membrane potential (Vm) and whole-cell membrane current (Im), respectively. […] All Vm and Im values were recorded by a Digidata 1440A Data Acquisition System (Molecular Devices) and the Clampex module of pCLAMP. […]

Assay [1] has as its system 68 mammalian GPCR's, ion channels, and transporters. Description: Radioligand displacement assays, panel of 68 targets. Format: binding. To be noted: 10 µM, active defined as >50% ligand displacement. A general note: Loss of bound radioactivity is the signal in a displacement assay; it reports binding, not function.

T1 sequence (Q14654 whole entry): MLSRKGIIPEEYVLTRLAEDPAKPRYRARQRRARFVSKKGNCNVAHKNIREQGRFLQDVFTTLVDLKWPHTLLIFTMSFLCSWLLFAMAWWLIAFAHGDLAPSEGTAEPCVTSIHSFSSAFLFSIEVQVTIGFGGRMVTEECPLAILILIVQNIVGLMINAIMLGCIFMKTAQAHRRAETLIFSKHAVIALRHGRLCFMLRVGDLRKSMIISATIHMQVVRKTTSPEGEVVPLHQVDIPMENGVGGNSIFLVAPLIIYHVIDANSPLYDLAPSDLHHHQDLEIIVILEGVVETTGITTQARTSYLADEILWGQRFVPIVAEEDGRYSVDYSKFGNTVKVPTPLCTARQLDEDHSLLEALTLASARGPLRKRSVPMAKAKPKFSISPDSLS
T1 sequence (Q09428 whole entry partner): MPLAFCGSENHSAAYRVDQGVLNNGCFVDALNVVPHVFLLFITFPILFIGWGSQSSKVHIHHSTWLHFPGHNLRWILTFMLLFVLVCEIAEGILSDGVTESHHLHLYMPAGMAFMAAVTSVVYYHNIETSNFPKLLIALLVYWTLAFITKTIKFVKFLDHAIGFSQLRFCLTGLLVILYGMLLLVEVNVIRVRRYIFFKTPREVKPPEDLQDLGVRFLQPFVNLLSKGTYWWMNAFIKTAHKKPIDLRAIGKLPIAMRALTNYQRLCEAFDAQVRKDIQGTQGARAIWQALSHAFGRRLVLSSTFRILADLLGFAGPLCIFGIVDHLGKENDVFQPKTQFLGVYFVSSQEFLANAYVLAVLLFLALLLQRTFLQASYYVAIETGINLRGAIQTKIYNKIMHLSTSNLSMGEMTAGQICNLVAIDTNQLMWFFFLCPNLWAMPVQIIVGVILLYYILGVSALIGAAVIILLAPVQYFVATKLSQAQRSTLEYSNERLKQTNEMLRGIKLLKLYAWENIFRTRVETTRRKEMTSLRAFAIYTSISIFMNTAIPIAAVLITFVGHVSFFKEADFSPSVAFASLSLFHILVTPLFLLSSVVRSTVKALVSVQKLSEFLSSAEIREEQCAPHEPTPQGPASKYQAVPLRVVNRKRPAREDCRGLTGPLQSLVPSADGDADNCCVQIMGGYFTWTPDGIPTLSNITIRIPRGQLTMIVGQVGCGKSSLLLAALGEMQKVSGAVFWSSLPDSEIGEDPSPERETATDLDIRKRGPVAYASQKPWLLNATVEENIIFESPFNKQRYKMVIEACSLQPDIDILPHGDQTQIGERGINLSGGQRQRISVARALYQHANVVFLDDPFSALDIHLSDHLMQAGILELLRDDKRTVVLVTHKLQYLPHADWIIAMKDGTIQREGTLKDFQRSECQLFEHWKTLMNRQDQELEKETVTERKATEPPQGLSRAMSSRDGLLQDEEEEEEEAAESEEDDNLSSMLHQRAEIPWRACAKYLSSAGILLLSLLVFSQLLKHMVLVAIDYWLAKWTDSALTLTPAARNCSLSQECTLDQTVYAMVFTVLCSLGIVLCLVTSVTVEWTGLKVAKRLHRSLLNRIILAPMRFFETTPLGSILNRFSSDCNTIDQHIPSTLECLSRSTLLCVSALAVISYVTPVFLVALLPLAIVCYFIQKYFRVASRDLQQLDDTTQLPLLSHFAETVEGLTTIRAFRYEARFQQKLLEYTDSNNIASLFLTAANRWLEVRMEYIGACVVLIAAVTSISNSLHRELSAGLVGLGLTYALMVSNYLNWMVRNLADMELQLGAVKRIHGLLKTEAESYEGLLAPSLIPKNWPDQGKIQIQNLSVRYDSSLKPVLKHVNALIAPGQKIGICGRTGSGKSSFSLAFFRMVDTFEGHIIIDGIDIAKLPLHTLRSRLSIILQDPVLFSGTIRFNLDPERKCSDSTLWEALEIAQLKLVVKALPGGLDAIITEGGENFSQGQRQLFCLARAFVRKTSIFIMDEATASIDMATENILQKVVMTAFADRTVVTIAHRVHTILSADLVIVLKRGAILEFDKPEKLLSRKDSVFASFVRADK
Chain of AeKir2B (L0EQ40 entry or part of it): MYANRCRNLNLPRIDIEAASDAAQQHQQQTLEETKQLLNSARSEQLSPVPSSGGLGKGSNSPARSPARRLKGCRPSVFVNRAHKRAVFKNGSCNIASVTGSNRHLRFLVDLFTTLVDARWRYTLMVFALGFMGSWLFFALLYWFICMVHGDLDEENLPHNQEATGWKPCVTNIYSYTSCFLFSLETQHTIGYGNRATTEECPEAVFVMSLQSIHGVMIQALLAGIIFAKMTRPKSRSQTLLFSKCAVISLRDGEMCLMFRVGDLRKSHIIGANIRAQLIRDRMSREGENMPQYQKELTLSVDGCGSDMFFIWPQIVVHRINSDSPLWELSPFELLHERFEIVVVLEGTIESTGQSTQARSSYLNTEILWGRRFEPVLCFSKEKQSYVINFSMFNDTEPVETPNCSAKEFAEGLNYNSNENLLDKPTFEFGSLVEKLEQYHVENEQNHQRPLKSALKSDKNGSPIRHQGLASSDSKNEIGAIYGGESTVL

`CCC(=O)N1c2ccc(S(=O)(=O)Nc3cccc(OC)c3)cc2CC1C` (stereo not drawn) [VU625, N-(3-methoxyphenyl)-2-methyl-1-propionylindoline-5-sulfonamide]: the IC50 on Kir6.2/SUR1 is greater than 30 µM; at AeKir2B it was 45.1 µM. Moreover, the “activity in radioligand displacement panel” value in assay [1] is reported as “against only three targets”.

The term IC50 denotes the concentration at which inhibition is half-maximal.

Values taken from paper PMC4222822, “Discovery and Characterization of a Potent and Selective Inhibitor of Aedes aegypti Inward Rectifier Potassium Channels” (PLoS ONE, 2014).
